Measurements taken from the METLIN SMRT retention time set (Domingo-Almenara et al. 2019).

Assay: gradient 5% acetonitrile 3 min, to 50% in 2 min, to 85% in 15 min, held 3 min, 100 µL/min
Conditions: column: Zorbax Extend-C18 2.1 x 50 mm; eluents: water / acetonitrile, 0.1% formic acid
How it was run: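 A Zorbax Extend-C18 column (2.1 × 50 mm, 1.8 μm) run at 100 μL/min with water and acetonitrile, both containing 0.1% formic acid, separated mixtures of ~100 pure standards. The HPLC was coupled to a quadrupole time-of-flight mass spectrometer operated in positive and negative ionization mode, with dead and dwell volumes of 40 μL and 900 μL. Each retention time was taken from a computationally picked adduct peak that was then manually inspected.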

RP-LC retention time [s]	SMILES
728	O=C(CC1CCN(C(=O)c2ccc3oc(-c4ccccc4)nc3c2)CC1)NC1CC1
986	CCN(c1cccc(C)c1)S(=O)(=O)c1ccc2c(c1)N(C(C)=O)CCCS2
596	CCOCCCNC(=O)Nc1ccc2nc(N3CCOCC3)cc(C)c2c1
858	O=C(Cc1cccs1)NCc1cc(-c2ccc(Cl)cc2)on1
930	O=C(C1CCN(c2ncnc3c2oc2ccccc23)CC1)N1CCN(c2ccccc2Cl)CC1
675	CC1CCN(c2cc(-n3cnc(C(=O)N4CCN(c5ccccn5)CC4)c3)ncn2)CC1
971	COc1ccc(-c2nc3cnccn3c2Nc2ccc(C)cc2C)cc1
686	CC1CCN(S(=O)(=O)c2ccc(-c3nnc(C(=O)NCCN4CCCC4)o3)cc2)CC1
913	Cc1ccc(NC(=O)N2CCC(n3cnc4ccc(Cl)cc4c3=O)CC2)cc1C
839	COc1ccc(Cc2nc(-c3ccc4c(c3)nnn4CCC(=O)N3CCCC3)no2)cc1
647	Cc1cnc(C2CC2)n1C1CCN(S(=O)(=O)c2ccc(C#N)cc2)C1 (stereo not given)
1090	COC(=O)C(NC(=O)Nc1ccc(-c2nc(-c3ccccc3)co2)cc1)c1ccccc1 (stereo not given)
1030	O=C(CN1C(=O)C2CCCCN2c2ccc(S(=O)(=O)N3CCCCC3)cc21)NC1CCCCC1 (stereo not given)
746	Cn1c(Cn2c(=O)sc3ccccc32)nnc1SCC(=O)N1CCc2ccccc21
772	Cn1cc(S(=O)(=O)N2CCC(C(=O)Nc3cccc(F)c3)CC2)cc1C(=O)N1CCCC1
615	CCNC(=O)c1cn(-c2ccc(NC(=O)C3CC3)cn2)cn1
938	O=C(NCc1ccc(F)cc1F)C1CCCN(c2nc3ccsc3c(=O)n2Cc2ccccc2)C1 (stereo not given)
1050	COCCn1c(C)cc(O)c(C(c2ccc(SC)cc2)N2CCC(C)CC2)c1=O (stereo not given)
997	O=S(=O)(c1cccs1)N1CCN(c2nc3c(F)cc(F)cc3s2)CC1
643	C[C@H](NC(=O)C1CCN(S(=O)(=O)c2ccccc2)CC1)C(=O)O
638	CCN1C(=O)S/C(=C\C(=O)O)C1=O
678	Cc1ccc2oc(CN3CCN(C(=O)Nc4ccccc4)CC3)nc2c1

RP-LC retention time [s]	SMILES
715	COC(=O)c1ccc(NC(=O)C2CCN(c3cc(N4CCCCC4)ncn3)CC2)cc1
924	COc1ccc(-c2cc(C(=O)N3CCN(S(=O)(=O)c4ccc(C)cc4C)CC3)[nH]n2)cc1
1070	CCc1cccc(C)c1NC(=O)Cn1cnc2c(sc3nc(-c4ccccc4)ccc32)c1=O
1240	CCOC(=O)c1cnc2cc(Cl)c(OC)cc2c1N1CCN(c2cccc(Cl)c2)CC1
573	CCN(CC)c1ccc(NC(=O)C2CC(=O)N(c3cccc(NC(C)=O)c3)C2)c(C)c1 (stereo not given)
727	CC(C)c1nnc(NC(=O)C2CCN(C(=O)c3ccccc3F)CC2)s1
689	CC(C)NC(=O)C1CCCN(c2nc3ncn(CC(=O)NCc4ccc(F)cc4)c(=O)c3s2)C1 (stereo not given)
960	O=C(NCCC1=CCCCC1)c1nc(Nc2ccccc2)c2ccccc2n1
945	CC1CCN(S(=O)(=O)c2cc(-c3nnc(C4CC4)o3)co2)CC1
620	O=C(NCc1ccco1)C1CCN(c2cc(N3CCSCC3)ncn2)CC1
646	Cc1ccc(NC(=O)CSc2nc(=O)n(CCN(C)C)c3c2CCC3)cc1F
661	CCn1cnc(S(=O)(=O)N2CCC(C(=O)NCCc3ccc(OC)c(OC)c3)CC2)c1
892	Cc1ccc(S(=O)(=O)c2cnc3ccc(F)cc3c2N2CCOCC2)cc1C
586	COc1ccc(C)c(N2C(=O)CC(N3CCC(C(N)=O)CC3)C2=O)c1 (stereo not given)
894	CCc1ccc(C(=O)N2CCCN(C3=NS(=O)(=O)C(c4ccccc4)=C3C)CC2)cc1
1050	CCc1cc(-c2csc(S(=O)(=O)Nc3ccc(C)cc3Br)c2)on1
713	Cc1ccc(NC(=O)NCC2CCOCC2)c(C)c1
1000	Cc1cc(C)nc(NS(=O)(=O)c2ccc(Nc3nc(-c4ccc(F)c(C)c4)cs3)cc2)n1
662	Cc1ccc(CNC(=O)C2CCN(c3cncnc3N3CCCC3)CC2)cc1
818	CC(C)(C)NC(=O)N1CCC(CNS(=O)(=O)c2ccc(Br)s2)CC1
724	Cn1c(=O)c(-c2ccc(C(=O)NCC3CCCO3)cc2)nc2ccccc21 (stereo not given)
888	O=C(Cc1csc2nc(-c3cccc(Br)c3)cn12)NC1CCCC1

RP-LC retention time [s]	SMILES
844	CCc1nc2onc(C)c2c(=O)n1CC(=O)NCCCc1ccccc1
672	Cc1cc(N2CCN(C(=O)C3CCCCC3)CC2)nc(N2CCCC2)n1
993	CC(C)Cc1cc(-c2nn3c(-c4cccc(F)c4)nnc3s2)n[nH]1
799	Cc1nc(N2CCCC(C(=O)NC3CCCC3)C2)c2c(C)c(C)oc2n1 (stereo not given)
812	CCCn1cc(CCNC(=O)Nc2ccc(Cl)cc2)c2cccnc21
1360	CCOC(=O)c1c(C)oc2nc(C)nc(Nc3ccc(C)c(F)c3)c12
672	CCCCC(=O)Nc1ccc2nc(N3CCN(c4ccccc4)CC3)cc(C(=O)O)c2c1
1010	CCOc1ccc(-c2nc(Cc3noc(-c4ccncc4)n3)c(C)o2)cc1
742	CCCCN1C(=O)C(CC(=O)NC(C)C)Sc2ncccc21 (stereo not given)
648	O=C(Nc1ccc(-c2cn3cccnc3n2)cc1)C1CCCC1
809	CCOc1ccc2nc(Nc3ncc4c(n3)CC(c3ccc(OC)cc3)CC4=O)nc(C)c2c1 (stereo not given)
722	Cc1csc(-c2cn(CC(=O)Nc3ccc(C)c(C)c3)cn2)n1
742	Clc1ccc(-c2ccc(CNCc3ccncc3)o2)c(Cl)c1
630	O=C(CCNc1c(-c2cccc(F)c2)nc2cnccn12)N1CCOCC1
920	COc1ccc(-c2noc(-c3nc(C)no3)n2)cc1
828	Cn1cnc(S(=O)(=O)N2CCC(CCOc3ccccc3F)C2)c1 (stereo not given)
937	Cc1ccc(S(=O)(=O)N2CCCN(c3ccc(=O)n(-c4ccc(F)cc4)n3)CC2)cc1C
682	Cc1cc(S(=O)(=O)N2CCN(c3nc4ccncc4n(C)c3=O)CC2)ccc1F
1200	Clc1nnc(NC2CCCCC2)c(Cl)c1Cl
959	COc1ccc(Cl)cc1C(=O)N1CCC2(CC1)N=C(c1ccc(Br)cc1)NO2
691	CCOc1ccc(S(=O)(=O)Nc2ccc(-c3cn4ccc(C)nc4n3)cc2)c(OCC)c1
844	COc1ccc(-c2nnc(-c3ccc(OC)c(S(=O)(=O)N4CCCC4)c3)o2)cc1OC

RP-LC retention time [s]	SMILES
793	O=C(Cn1ccc2sccc2c1=O)Nc1cccc(Br)c1
736	O=C(CN1CCN(Cc2cccc(Cl)c2)C1=O)NCc1ccc(N2CCOCC2)cc1
778	CN1C(=O)COc2ccc(-c3csc(NC(=O)C4CC4)n3)cc21
770	CCc1nnc(-c2ccc3ccn(CC(=O)Nc4cc(OC)ccc4OC)c3c2)o1
702	CC(C)CNC(=O)C1CCN(C(=O)c2ncn3c2COC(c2ccccc2)C3)CC1 (stereo not given)
634	COc1ccc(CNC(=O)c2cccc(N3CCNC(c4ccccc4)C3)n2)cc1 (stereo not given)
780	CC(=O)c1ccc(NS(=O)(=O)N2CCC(C)CC2)cc1
728	O=c1[nH]c2ccc(NCc3cccc(Cl)c3Cl)cc2[nH]1
794	CCN(C(=O)C1CCN(S(=O)(=O)c2ccc3c(c2)NC(=O)CO3)CC1)c1ccccc1
1140	CCCN1C(=O)COc2ccc(-c3noc(-c4ccc(OC)cc4)n3)cc21
742	Cc1nnc(NC(=O)COc2ccc3ccccc3c2)s1
1320	CC(C)Oc1ccc(CNS(=O)(=O)c2cc(-c3nc(C(C)(C)C)cs3)cs2)cc1
926	COCCc1noc(-c2nc(-c3ccccc3F)no2)n1
578	CN1CCN(CCNC(=O)CN2C(=O)C3CCCCN3c3ccc(C(=O)N(C)C)cc32)CC1 (stereo not given)
882	Cc1cc(N2CCC(NC(=O)Nc3cccc(F)c3)C2=O)ccc1F (stereo not given)
663	CC(=O)NCC1(O)CCCC(C)C1 (stereo not given)
987	CC1CCN(S(=O)(=O)c2ccc3c(c2)CCCC(=O)N3CC(=O)NC2CCCCC2)CC1
694	Cc1ccnc(N2CCCC(C(=O)NCc3ccc(C)o3)C2)n1 (stereo not given)
1410	COc1ccc(NC(=O)Cn2nc3c4sc(N(C)C)nc4ncn3c2=O)cc1
605	c1ccc(N2CCN(Cc3csc4c3CCCC4)CC2)nc1
648	CC(C)c1ccc(CNC(=O)C2CCc3nc(N4CCCC4)ncc3C2)cc1 (stereo not given)
966	COc1ccc(N2CC(c3nc(-c4ccc5c(c4)OCO5)no3)CC2=O)cc1Cl (stereo not given)

SMILES	RP-LC retention time [s]
CCCc1c(C(=O)O)nnn1Cc1ccccc1Cl	796
c1ccc2c3c([nH]c2c1)CNCC3	703
